ChEMBL document CHEMBL1201862, “PubChem BioAssay data set” (2004)
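Grown in 96-well plates, cells were treated for 48 hours with each compound at five concentrations. Insufficient inhibition: endpoint recorded as highest concentration tested. Abbreviation: GI50, concentration required for 50% inhibition of growth.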 Active and inactive are the calls of the source. Rule as the data show it: active = GI50 up to about 1.1 µM and inactive = higher.

Assays:
Assay in all cases: NCI tumour cell line growth inhibition, 48 h
OVCAR-3 = tested on: OVCAR-3
HCT-15 = tested on: HCT-15
MDA-MB-231 = tested on: MDA-MB-231
IGROV-1 = tested on: IGROV-1
MDA-MB-435 = tested on: MDA-MB-435
OVCAR-4 = tested on: OVCAR-4
RXF 393 = tested on: RXF 393
CCRF-CEM = tested on: CCRF-CEM
A498 = tested on: A498
U-251 = tested on: U-251
UO-31 = tested on: UO-31
M14 = tested on: M14
SK-OV-3 = tested on: SK-OV-3
786-0 = tested on: 786-0
TK-10 = tested on: TK-10
SN12C = tested on: SN12C
OVCAR-8 = tested on: OVCAR-8
Malme-3M = tested on: Malme-3M
HT-29 = tested on: HT-29

SMILES	GI50 (OVCAR-3)	GI50 (HCT-15) [µM]	GI50 (MDA-MB-231)	GI50 (IGROV-1)	GI50 (MDA-MB-435)	GI50 (OVCAR-4)	GI50 (RXF 393)	GI50 (CCRF-CEM)	GI50 (A498)	GI50 (U-251)	GI50 (UO-31)	GI50 (M14)	GI50 (SK-OV-3)	GI50 (786-0)	GI50 (TK-10)	GI50 (SN12C)	GI50 (OVCAR-8)	GI50 (Malme-3M)	GI50 (HT-29)
COC(=O)c1cc2c(cc1CC(Cc1ccc3c(c1)CCCC3)C(=O)OC)CCCC2 (configuration not stated)	44.6 µM (inactive)	35.7	68.4 µM (inactive)	> 100 µM (inactive)	40.6 µM (inactive)	29.9 µM (inactive)	25.8 µM (inactive)	29.7 µM (inactive)	> 100 µM (inactive)	41.7 µM (inactive)	> 100 µM (inactive)	88.3 µM (inactive)	49.5 µM (inactive)	45.4 µM (inactive)	95.3 µM (inactive)	> 100 µM (inactive)	84.7 µM (inactive)	33.6 µM (inactive)	33.7 µM (inactive)
COc1nc2ncc([C@@H](O)[C@H](O)CO)nc2c(=O)[nH]1	> 100 µM (inactive)	> 100	> 100 µM (inactive)	> 100 µM (inactive)	> 100 µM (inactive)	> 100 µM (inactive)	> 100 µM (inactive)	> 100 µM (inactive)	> 100 µM (inactive)	> 100 µM (inactive)	> 100 µM (inactive)	> 100 µM (inactive)	> 100 µM (inactive)	> 100 µM (inactive)	> 100 µM (inactive)	> 100 µM (inactive)	> 100 µM (inactive)	> 100 µM (inactive)	> 100 µM (inactive)
CC1CC[C@@]2(OC1)OC1C[C@H]3[C@@H]4CC[C@H]5CC(OC6OC(CO)C(OC7OC(CO)C(O)C(O)C7OC7OC(CO)C(O)C(O)C7O)C(O)C6O)CCC5(C)[C@H]4CCC3(C)C1[C@@H]2C (some centres not stated)	1.8 µM (inactive)	10.3	0.929 µM (active)	1.04 µM (active)	2.65 µM (inactive)	1.14 µM (inactive)	1.05 µM (active)	1.35 µM (inactive)	1.52 µM (inactive)	1.1 µM (active)	0.993 µM (active)	3.34 µM (inactive)	1.57 µM (inactive)	1.56 µM (inactive)	1.61 µM (inactive)	2.01 µM (inactive)	6.24 µM (inactive)	4.04 µM (inactive)	0.964 µM (active)
CCCCC/C=C\C=C1\C(=O)C=C[C@@H]1C/C=C\CCCC(=O)O	2.9 µM (inactive)	5.24	9.2 µM (inactive)	2.75 µM (inactive)	2.42 µM (inactive)	1.53 µM (inactive)	1.94 µM (inactive)	0.205 µM (active)	11.7 µM (inactive)	2.48 µM (inactive)	6.31 µM (inactive)	6.85 µM (inactive)	7.06 µM (inactive)	3.21 µM (inactive)	8.43 µM (inactive)	2 µM (inactive)	1.49 µM (inactive)	10.2 µM (inactive)	5.05 µM (inactive)
O=C(CSCC(=O)N/N=C/c1cccs1)N/N=C/c1cccs1	38.6 µM (inactive)	> 100	75.9 µM (inactive)	66.7 µM (inactive)	> 100 µM (inactive)	45.2 µM (inactive)	74.3 µM (inactive)	51.6 µM (inactive)	> 100 µM (inactive)	> 100 µM (inactive)	48.3 µM (inactive)	> 100 µM (inactive)	> 100 µM (inactive)	47.6 µM (inactive)	> 100 µM (inactive)	> 100 µM (inactive)	37 µM (inactive)	61 µM (inactive)	> 100 µM (inactive)
COc1ccn(CC(=O)c2cc3ccccc3[nH]2)c(=O)n1	> 100 µM (inactive)	> 100	> 100 µM (inactive)	> 100 µM (inactive)	> 100 µM (inactive)	> 100 µM (inactive)	> 100 µM (inactive)	> 100 µM (inactive)	> 100 µM (inactive)	> 100 µM (inactive)	> 100 µM (inactive)	> 100 µM (inactive)	> 100 µM (inactive)	> 100 µM (inactive)	> 100 µM (inactive)	> 100 µM (inactive)	> 100 µM (inactive)	> 100 µM (inactive)	> 100 µM (inactive)
COC(=O)c1c[nH]c2c1-c1cc(C(=O)OCc3ccccc3)n(S(=O)(=O)c3ccc(C)cc3)c1C(=O)C2=O	0.0316 µM (active)	0.194	0.0481 µM (active)	0.372 µM (active)	0.0318 µM (active)	0.299 µM (active)	0.214 µM (active)	0.346 µM (active)	1.85 µM (inactive)	0.317 µM (active)	0.327 µM (active)	0.155 µM (active)	1.24 µM (inactive)	0.22 µM (active)	2 µM (inactive)	0.165 µM (active)	0.237 µM (active)	0.103 µM (active)	0.473 µM (active)
O=C(NCCNCCNC(=O)c1cc(-c2ccccc2)nc2ccccc12)c1cc(-c2ccccc2)nc2ccccc12	2.24 µM (inactive)	2.92	2.51 µM (inactive)	2.52 µM (inactive)	1.82 µM (inactive)	2 µM (inactive)	1.67 µM (inactive)	3.77 µM (inactive)	2.7 µM (inactive)	2.08 µM (inactive)	2.64 µM (inactive)	1.6 µM (inactive)	7.46 µM (inactive)	1.69 µM (inactive)	2.4 µM (inactive)	2.37 µM (inactive)	2.04 µM (inactive)	1.92 µM (inactive)	1.81 µM (inactive)
